Measurements: US10125183B2, “Decoy peptides inhibiting binding of AMIGO2 and 3-phosphoinositide-dependent kinase 1” (Curacle Co., Ltd., priority 2015, dated 2018)
Each block holds one molecule with its values, some of them ahead of it. Where no end group is shown, it is not given here.

Assays:
PH domain of PDK1 = target: T1, PH domain of PDK1 (Homo sapiens, UniProt O15530); assay: Pull-down assay and Far-western analysis of truncated AMIGO2 CD mutants; format: binding; conditions: purified GST-tagged proteins
T1 construct: the purified His-tagged PH domain proteins were incubated with Ni^2+-NTA resins; made in house; host or cells: Escherichia coli BL21
T1 sequence (O15530 409-556): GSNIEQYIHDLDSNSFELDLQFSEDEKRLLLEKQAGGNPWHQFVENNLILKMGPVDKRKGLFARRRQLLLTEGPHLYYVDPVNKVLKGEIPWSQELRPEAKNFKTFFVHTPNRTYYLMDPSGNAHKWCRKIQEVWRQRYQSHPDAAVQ
Experimental: GST-CD, 420-484, 420-474, 420-464 and 420-454 were prepared with vector plasmids of pGEX 4T1 and pET32a followed by the preparation of His-PH.BamH1 (5′-[…]-3′) (SEQ ID NO: 29) and Xho1 (5′-[…]-3′ (SEQ ID NO: 30), CD; 5′-[…]-3′ (SEQ ID NO: 31), 420-484; 5′-[…]-3′ (SEQ ID NO: 32), 420-474; 5′-[…]-3′ (SEQ ID NO: 33), 420-464; and 5′-[…]-3′ (SEQ ID NO: 34), 420-454) were used, and BamH1 (5′-[…]-3′ (SEQ ID NO: 35)) and Xho1 (5′-[…]-3′ (SEQ ID NO: 36)) were used for preparing His-PH. The proteins were expressed in Escherichia coli BL21, and purified with glutathione-Sepharose 4B resin and Ni2+-NTA-agarose.
GST and His-fused proteins (1.5 mg/ml:1.5 mg/ml) were incubated for 2 h at 4° C., immobilized on Ni^2+-NTA resin or glutathione-Sepharose 4B beads, and incubated for 30 min. Proteins were then eluted with elution buffer (25 mM NaPi, 300 mM NaCl, 5 mM β-mercaptoethanol, 500 mM imidazole, pH 7.5), western blot was performed with anti-GST and His antibodies.
Far-western analysis was performed as previously described (Wu et al., 2007). Briefly, purified GST-tagged proteins (1 μg) were loaded and separated, and then transferred to PVDF membranes. The membranes were denatured and renatured, incubated with purified His-tagged PH domain proteins (10 μg), and then detected with anti-His antibody.

HUVECs [1] = assay: EC adhesion assay; format: cell-based, human; conditions: siRNA-transfected HUVECs
Experimental: (§1) HUVECs were transfected with scrambled (control) and human AMIGO2 siRNAs using Lipofectamine® (Invitrogen) for 3 h, and cells were assayed 48 h after transfection. Human AMIGO2 siRNA was designed by Invitrogen using the following sequences: 5′-[…]-3′ (SEQ ID NO: 8) and 5′-[…]-3′ (SEQ ID NO: 9). HUVECs were transfected with EGFP-tagged plasmids using Lipofectamine® LTX and PLUS™ (Invitrogen) for 2 h, and cells were assayed 24 h after transfection.
HUVECs transfected with siRNA were trypsinized and washed twice in phenol-free M199. Prior to seeding, a 96-well plate was coated with 2% gelatin, fibronectin (3 μg/ml in PBS), and collagen type I (10 μg/ml in PBS), and incubated at 37° C. for 1 h in a humidified incubator. Prior to the initiation of the experiments, the wells were rinsed twice with PBS. HUVECs were labeled with calcein AM, and 1.5×10^4 cells were seeded into each well of the 96-well plates. Cells were incubated for 1 h at 37° C., and non-adherent, calcein-labeled cells were removed by four washes. M199 containing 20% FBS was added to the cells in each well, and the fluorescence was measured (maximum absorbance at 494 nm and maximum emission at 517 nm) using a fluorescein filter set by FLUOstar Omega (BGM LABTECH).

HUVECs [2] = assay: HUVEC cell viability with or without VEGF; format: cell-based, human; conditions: in the presence or absence of VEGF
Experimental: Endothelial progenitor cells (EPC) were isolated from human umbilical cord blood as previously described (Maeng et al., 2009). Briefly, human umbilical cord blood samples (approximately 50 mL each) were collected from fresh placentas with attached umbilical cords by gravity flow. Human umbilical vein endothelial cells (HUVECs) were isolated from human umbilical cord veins using collagenase as described previously (Marin et al., 2001), and cells from passages three to six were used. HUVECs were cultured on 2% gelatin-coated dishes at 37° C. in a 5% CO2-humidified atmosphere using M199 medium (HyClone) containing 20% fetal bovine serum (FBS), 100 U/mL penicillin, 100 μg/mL streptomycin, 3 ng/mL bFGF (Upstate Biotechnology), and 5 U/mL heparin.
The PTD-A2 of FITC-linker-YGRKKRRQRRR-GKRVVFLEPLKDTA (SEQ ID NO: 37) (decoy peptide) and the control peptide (FITC-linker-YGRKKRRQRRR-GRVKTDFLAVPEKL (SEQ ID NO: 38)) (Con-pep) were obtained from Peptron. The experiment was performed using 5 μM concentration in vitro, 4 mg/kg was used for an animal experiment. Peptide treated HUVECs were incubated with serum-free M199 medium at 37° C.

Akt = assay: Endogenous Akt signaling in AMIGO2 siRNA-transfected HUVECs; format: cell-based, human
Experimental: as §1

HUVECs [3] = assay: FAK immunostaining, F-actin staining and apoptosis markers in siRNA-transfected HUVECs; format: cell-based, human
Experimental: as §1
HUVECs were fixed in 3.7% formaldehyde for 10 min and permeabilized with 0.1% Triton X-100 on the ice. Cells were labeled with anti-FAK antibody (Santa Cruz Biotechnology), anti-PDK1 antibody (Cell Signaling Technology), anti-Akt antibody (Cell Signaling Technology), and anti-AMIGO2 antibody (Abcam) for 2 h at room temperature or overnight at 4° C. Afterwards, the cells were incubated with Alexa 488 and Alexa 546 secondary antibodies (Invitrogen) for 60 min at room temperature, and were then examined under a confocal microscope (LSM 700 META; Carl Zeiss).

AMIGO2 = assay: In vivo siRNA injection and analysis of hyaloid vessels and retinas; set-up: species or system mouse
Experimental: The sequence 5′-[…]-3′ (SEQ ID NO: 28) (mouse AMIGO2 siRNA, Dharmacon) was mixed with the TransIT®-QR Starter Kit (Mirus), and subcutaneously injected to each mouse (5 μg/P3.5 mouse) (Behlke, 2006; Bonifazi et al., 2010; Inaba et al., 2012; Mammoto et al., 2009). Hyaloid vessels and retinas were prepared as previously described (Lobov et al., 2005). After 2 days, the differences of protein change, retina, and hyaloid vessels were analyzed.

[4] = subcutaneous injection, 5 μg/P3.5 mouse, after 2 days

Molecule: 420-474: purified GST-tagged truncated mutant of the AMIGO2 cytosolic domain, residues 420-474 (TPCPCKCKTKRQKNMLHQSNAHSSILSPGPASDASADERKAGAGKRVVFLEPLKD; cysteine pairing not given here; also: GST-tagged)
direct interaction with purified His-PDK1 PH (PH domain of PDK1): directly interacted

Molecule: 5′-UUAGGAUGCCCUCAGCUAUCACUGC-3′ (SEQ ID NO: 8) and 5′-AUUGUUGUAAAGCAGAAGCACUUCC-3′ (SEQ ID NO: 9) [AMIGO2 siRNA]
adhesion on ECM substrates (gelatin, fibronectin, collagen type I) (HUVECs [1]): reduced
cell viability of siRNA-transfected HUVECs (HUVECs [2]): decreased
Akt phosphorylation (Thr308 and Ser473) (Akt): reduced
active caspase-3 and FAK fragments (HUVECs [3]): detected
expression of FAK (immunostaining) (HUVECs [3]): low
F-actin depolymerization (HUVECs [3]; rhodamine-phalloidin staining): exhibited F-actin depolymerization

Molecule: 5′-UUGUACAAAAGAUCUCGCUGA-3′ (SEQ ID NO: 28) [AMIGO2-specific siRNA]
Akt phosphorylation in hyaloid vessels and retinas (AMIGO2; Amigo2-depleted mice): decreased
expression of AMIGO2 in vivo (AMIGO2; subcutaneous injection, 5 μg/P3.5 mouse): decreased
hyaloid vessel structure (AMIGO2; [4]): significant decreases
retinal vessel growth and vascular areas (AMIGO2; [4]): reduced

The remaining lines, values ahead:

direct interaction with purified His-PDK1 PH (PH domain of PDK1): directly interacted
B1: 420-484: purified GST-tagged truncated mutant of the AMIGO2 cytosolic domain, residues 420-484 (protein)
chain: TPCPCKCKTKRQKNMLHQSNAHSSILSPGPASDASADERKAGAGKRVVFLEPLKDTAAGQNGKVR
modifications: also: GST-tagged

direct interaction with purified His-PDK1 PH (PH domain of PDK1): directly interacted
B2: GST-tagged AMIGO2^CD: purified GST-tagged cytosolic domain of AMIGO2 (420-522aa) (protein)
chain: TPCPCKCKTKRQKNMLHQSNAHSSILSPGPASDASADERKAGAGKRVVFLEPLKDTAAGQNGKVRLFPSEAVIAEGILKSTRGKSDSDSVNSVFSDTPFVAST
modifications: left off: a dimerising Fc or GST
